# Experimental data as given in article PMC6879718, “Mycobacterial OtsA Structures Unveil Substrate Preference Mechanism and Allosteric Regulation by 2-Oxoglutarate and 2-Phosphoglycerate” (mBio, 2019).
# Key:
# [1] = target: T1, M. thermoresistibile OtsA R213E (Mycolicibacterium thermoresistibile, UniProt G7CGT2, R213E); assay: Effect of allosteric regulators on OtsA activity (R213E); format: biochemical, Mycobacterium thermoresistibile
# T1 sequence (G7CGT2 1-486 R213E): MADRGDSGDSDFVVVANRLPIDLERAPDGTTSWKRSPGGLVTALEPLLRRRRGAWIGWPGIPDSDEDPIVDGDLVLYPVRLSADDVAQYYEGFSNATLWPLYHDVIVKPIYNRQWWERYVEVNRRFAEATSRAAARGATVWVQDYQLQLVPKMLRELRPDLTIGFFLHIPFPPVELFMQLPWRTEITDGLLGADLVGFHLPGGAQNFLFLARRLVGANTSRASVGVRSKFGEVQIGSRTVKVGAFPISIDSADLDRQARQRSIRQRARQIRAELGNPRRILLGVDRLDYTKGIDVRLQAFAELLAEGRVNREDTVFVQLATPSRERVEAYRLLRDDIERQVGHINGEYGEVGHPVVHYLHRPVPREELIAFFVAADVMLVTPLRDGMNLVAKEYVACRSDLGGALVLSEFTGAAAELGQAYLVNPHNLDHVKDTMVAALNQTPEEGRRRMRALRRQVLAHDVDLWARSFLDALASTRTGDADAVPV
# Experimental: (§1) . All reagents used were obtained from Sigma-Aldrich. The enzymatic reactions (200-μl reaction mixture) were performed at 37°C, and the reaction mixtures contained 50 mM Tris (pH 7.5), 200 mM NaCl, 10 mM MgCl2, 50 mM KCl, 0.3 mM NADH, 2.5 mM phosphoenolpyruvate (PEP), 10 units of pyruvate kinase-lactate dehydrogenase, 0.1 μM enzyme, and various concentrations of G6P and NDP-glucose to determine kinetic parameters.
# (§2) […]. All experiments were performed in triplicate in a PHERAstar plate reader (BMG Labtech), and data were analyzed with Prism 5 (GraphPad Software).
# [2] = target: T2, M. thermoresistibile OtsA R384E (Mycolicibacterium thermoresistibile, UniProt G7CGT2, R384E); assay: Effect of allosteric regulators on OtsA activity (R384E); format: biochemical, Mycobacterium thermoresistibile
# T2 sequence (G7CGT2 1-486 R384E): T1 sequence (G7CGT2 1-486 R213E)
# Experimental: as §1, §2
smiles,measurement,setting,value
"O=C(O)C(CO)OP(=O)(O)O (centres unmarked) [2PG, 2-phosphoglyceric acid]",IC50,[1],12 mM
same,IC50,[2],< 100 mM
